Data published in ChEMBL document CHEMBL1201862, “PubChem BioAssay data set” (2004).
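These data come from cells grown in 96-well plates and exposed to compound for 48 hours at five concentrations. At the GI50, growth is halved.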 The source made the active and inactive calls. No stated cut-off is given here; in the data, active = GI50 up to about 1.1 µM and inactive = higher.

What was measured:
Assay in all cases: NCI anticancer screen, dose series, 48 h
[1] = system: KM-20L2
[2] = system: LXFL 529
[3] = system: XF498
[4] = system: SNB-78
[5] = system: DLD-1
[6] = system: M19-MEL
[7] = system: HOP-18
[8] = system: DMS-273
[9] = system: RXF 631

Row | SMILES | GI50 [1] | GI50 [2] | GI50 [3] | GI50 [4] | GI50 [5] | GI50 [6] | GI50 [7] | GI50 [8] | GI50 [9]
1 | CCOC(=O)C(C(=O)Cc1ccccc1)c1ccccc1 (stereo not given) | > 100 µM (inactive) | > 100 µM (inactive) | > 100 µM (inactive) | > 100 µM (inactive) | > 100 µM (inactive) | > 100 µM (inactive) | – | – | –
2 | O=C1C=C(Nc2cccnc2)c2ccccc2C1=O | > 43.2 µM (inactive) | 11.4 µM (inactive) | – | 15.5 µM (inactive) | 5.11 µM (inactive) | – | 10.3 µM (inactive) | 6.81 µM (inactive) | –
3 | Cc1cccc(NC(=O)CSc2nnc(Cc3ccccc3)o2)c1 | > 100 µM (inactive) | > 100 µM (inactive) | – | > 100 µM (inactive) | > 100 µM (inactive) | – | > 100 µM (inactive) | > 100 µM (inactive) | –
4 | Cc1occ2c1C(=O)CC1C2[C@@H](O)CC2C(C)(C)CCC[C@]12C (stereo not given in full) | > 100 µM (inactive) | > 100 µM (inactive) | > 100 µM (inactive) | > 100 µM (inactive) | > 100 µM (inactive) | > 100 µM (inactive) | > 100 µM (inactive) | – | –
5 | O=C(CC1(O)C(=O)Nc2ccccc21)c1ccccc1Cl (stereo not given) | > 100 µM (inactive) | > 100 µM (inactive) | > 100 µM (inactive) | > 100 µM (inactive) | > 100 µM (inactive) | > 100 µM (inactive) | – | > 100 µM (inactive) | –
6 | COC(=O)C(=O)C(CC(=O)Nc1c(C)cccc1C)C(=O)OC (stereo not given) | > 100 µM (inactive) | > 100 µM (inactive) | > 100 µM (inactive) | > 100 µM (inactive) | > 100 µM (inactive) | > 100 µM (inactive) | > 100 µM (inactive) | – | > 100 µM (inactive)
7 | Cc1ccc(C2=Nc3ccccc3[S+]([O-])C(c3ccc4c(c3)OCO4)C2)cc1 (stereo not given) | 17.4 µM (inactive) | > 10 µM (inactive) | 16.5 µM (inactive) | 24.7 µM (inactive) | 12.3 µM (inactive) | 27 µM (inactive) | > 100 µM (inactive) | 28.6 µM (inactive) | –
8 | CC1(C)C2CCC3(C2)CS(=O)(=O)N2OC231 (stereo not given) | 16.3 µM (inactive) | 16.7 µM (inactive) | – | 25.5 µM (inactive) | 23.7 µM (inactive) | 15.7 µM (inactive) | 17.6 µM (inactive) | 29.4 µM (inactive) | –
9 | O=C(CSc1nnc(Cc2ccccc2)o1)Nc1ccc(Cl)cc1Cl | > 100 µM (inactive) | > 100 µM (inactive) | – | > 100 µM (inactive) | > 100 µM (inactive) | > 100 µM (inactive) | > 100 µM (inactive) | > 100 µM (inactive) | –
10 | Nc1nncc2c1c(Br)cn2C1OC(CO)C(O)C1O (stereo not given) | 44 µM (inactive) | 23.7 µM (inactive) | > 41.7 µM (inactive) | > 66.4 µM (inactive) | 4.82 µM (inactive) | > 100 µM (inactive) | > 67.6 µM (inactive) | 7.23 µM (inactive) | 2.84 µM (inactive)
11 | COc1ccc(C(c2ccccc2C(=O)O)c2ccc(OC)c3ccccc23)c2ccccc12 | 9.25 µM (inactive) | 6.35 µM (inactive) | 20.9 µM (inactive) | 20.9 µM (inactive) | 7.31 µM (inactive) | 12.5 µM (inactive) | 3.39 µM (inactive) | 14 µM (inactive) | –
12 | O=C(Cc1ccccc1)N/N=C(/c1nc2ccc([N+](=O)[O-])cc2nc1O)C(O)c1ccc(C(O)/C(=N/NC(=O)Cc2ccccc2)c2nc3ccc([N+](=O)[O-])cc3nc2O)cc1 (stereo not given) | 12.4 µM (inactive) | 24.7 µM (inactive) | 29.8 µM (inactive) | – | 56.8 µM (inactive) | 58.9 µM (inactive) | – | – | 51.3 µM (inactive)
13 | N#Cc1nc(C2OC(COC(=O)c3ccccc3)C(OC(=O)c3ccccc3)C2OC(=O)c2ccccc2)oc1N (stereo not given) | 39 µM (inactive) | – | – | 22 µM (inactive) | 37.2 µM (inactive) | 36.7 µM (inactive) | 10.7 µM (inactive) | 26.4 µM (inactive) | –
14 | CCOC(=O)N1N=NC2C3OC(C[C@@]3(C#N)OC(C)=O)[C@H]21 (stereo not given in full) | > 100 µM (inactive) | > 100 µM (inactive) | > 100 µM (inactive) | > 100 µM (inactive) | > 100 µM (inactive) | > 100 µM (inactive) | > 100 µM (inactive) | > 100 µM (inactive) | > 100 µM (inactive)
15 | COCCCNC(=O)CC(=O)NCCCOC | > 100 µM (inactive) | > 100 µM (inactive) | – | > 100 µM (inactive) | > 100 µM (inactive) | > 100 µM (inactive) | > 100 µM (inactive) | – | > 100 µM (inactive)
16 | Cc1ccc([N+](=O)[O-])cc1NC(=O)/C(CC(=O)c1sc(C(N)=S)nc1C)=N\N | > 100 µM (inactive) | 41.7 µM (inactive) | – | > 100 µM (inactive) | > 100 µM (inactive) | 71.8 µM (inactive) | 71.3 µM (inactive) | 29.7 µM (inactive) | 31.5 µM (inactive)
17 | O=C(/C=C/c1ccccc1)NC1C=Nc2ccc([N+](=O)[O-])cc2NC1=O (stereo not given) | 23.3 µM (inactive) | 34.7 µM (inactive) | > 100 µM (inactive) | > 100 µM (inactive) | > 100 µM (inactive) | 38.4 µM (inactive) | – | 21.6 µM (inactive) | –
18 | CCN(CC)c1cccc2c1C1(O)CCC3(CC21)OCCCCO3 (stereo not given) | 68.4 µM (inactive) | > 100 µM (inactive) | – | > 100 µM (inactive) | 57.1 µM (inactive) | 91.4 µM (inactive) | > 100 µM (inactive) | > 100 µM (inactive) | –
19 | N#CC1(C2CC(=O)N(c3ccccc3)C2=O)CCCCC1=O (stereo not given) | – | > 100 µM (inactive) | 9.2 µM (inactive) | > 100 µM (inactive) | > 100 µM (inactive) | > 100 µM (inactive) | > 100 µM (inactive) | > 100 µM (inactive) | > 100 µM (inactive)
20 | COc1cc(C(=O)NO)ccc1O | > 100 µM (inactive) | > 100 µM (inactive) | – | > 100 µM (inactive) | > 100 µM (inactive) | > 100 µM (inactive) | > 100 µM (inactive) | > 100 µM (inactive) | –
21 | CCOC(=O)c1[nH]c2cc(OC)c(OC)cc2c1CN(C)C | > 100 µM (inactive) | – | – | > 100 µM (inactive) | > 100 µM (inactive) | – | – | – | –
22 | Cc1c(-c2ccccc2)c(=O)oc2ccc(Cl)cc12 | – | > 100 µM (inactive) | – | 26 µM (inactive) | > 100 µM (inactive) | > 100 µM (inactive) | > 100 µM (inactive) | 87.1 µM (inactive) | –
23 | CC(=O)c1ccc(NC(=O)C(=O)Nn2c(S)nc3ccccc3c2=O)cc1 | > 100 µM (inactive) | > 100 µM (inactive) | > 100 µM (inactive) | > 100 µM (inactive) | > 100 µM (inactive) | > 100 µM (inactive) | > 100 µM (inactive) | – | –
24 | CC(=O)c1cccc(NC(=O)/C(=N\NC(C)(C)C)c2c(O)c3ccccc3oc2=O)c1 | > 100 µM (inactive) | > 100 µM (inactive) | > 100 µM (inactive) | – | > 100 µM (inactive) | 84.7 µM (inactive) | > 100 µM (inactive) | > 100 µM (inactive) | –
25 | N#CCc1ccc(C(C#N)/C(CCCC(=O)Nc2cccc([N+](=O)[O-])c2)=N\NC(=O)NN)cc1 (stereo not given) | > 100 µM (inactive) | > 100 µM (inactive) | – | > 100 µM (inactive) | > 100 µM (inactive) | > 100 µM (inactive) | > 100 µM (inactive) | > 100 µM (inactive) | –
26 | CCCCCC[C@@H]1CCC2C(CO)[C@@H](O)CC[C@@H]2C1 (stereo not given in full) | 18.4 µM (inactive) | 18.5 µM (inactive) | 24.7 µM (inactive) | 19.2 µM (inactive) | 18.8 µM (inactive) | 18.2 µM (inactive) | 22.4 µM (inactive) | 20.2 µM (inactive) | –
27 | COCC(C#N)NC1CC(OC2CC(O)(C(=O)CO)Cc3c(O)c4c(c(O)c32)C(=O)c2c(OC)cccc2C4=O)OC(C)C1O (stereo not given) | 0.191 µM (active) | 0.083 µM (active) | 0.0427 µM (active) | 0.235 µM (active) | 0.2 µM (active) | 0.0528 µM (active) | 0.125 µM (active) | 0.0266 µM (active) | 0.0716 µM (active)
28 | C=C[C@]1(C)CCC2=C(CCC3C2(C)CCC[C@]3(C)CO)C1 (stereo not given in full) | 20.2 µM (inactive) | 56.1 µM (inactive) | 52.6 µM (inactive) | 79.4 µM (inactive) | 50 µM (inactive) | 43.5 µM (inactive) | > 100 µM (inactive) | 41.8 µM (inactive) | 51.1 µM (inactive)
